Experimental data as given in the supplement of paper PMC10307832.

Experiments:
Assay in all cases: relative viability (nuclei count vs DMSO), 5 days (fraction); higher = more cells survive
[1] = compound: COc1cccc2cc(-c3nc([C@H]4CC[C@H](C(=O)O)CC4)n4ncnc(N)c34)[nH]c12 [OSI-027] + CC1(C)CCC(c2ccc(Cl)cc2)=C(CN2CCN(c3ccc(C(=O)NS(=O)(=O)c4ccc(N[C@H](CCN5CCOCC5)CSc5ccccc5)c(S(=O)(=O)C(F)(F)F)c4)cc3)CC2)C1 [Navitoclax] (partner 0.5 µM)
In short: (§1)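 Relative viability is defined as nuclei in treated wells over nuclei in vehicle wells. Duplicate plates were run and medians reported. Lung cancer cell lines in 1536-well plates were dosed by pin tool one day after seeding, with one drug or with a fixed anchor-drug dose plus five library-drug doses (not always all listed) in √10 steps, and nuclei were counted after 5 days.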

[2] = compound: Cc1nc(NC(=O)N2CCC[C@H]2C(N)=O)sc1-c1ccnc(C(C)(C)C(F)(F)F)c1 [Alpelisib] + CC(C)C[C@H](NC(=O)[C@H](Cc1ccccc1)NC(=O)c1cnccn1)B(O)O [Bortezomib] (partner 0.002 µM)
In short: as §1

[3] = compound: Cc1nc(NC(=O)N2CCC[C@H]2C(N)=O)sc1-c1ccnc(C(C)(C)C(F)(F)F)c1 [Alpelisib] + CS(=O)(=O)N1CCN(Cc2cc3nc(-c4cccc5[nH]ncc45)nc(N4CCOCC4)c3s2)CC1 [Pictilisib] (partner 1 µM)
In short: as §1

[4] = compound: Cc1nc(NC(=O)N2CCC[C@H]2C(N)=O)sc1-c1ccnc(C(C)(C)C(F)(F)F)c1 [Alpelisib] + COc1cccc2cc(-c3nc([C@H]4CC[C@H](C(=O)O)CC4)n4ncnc(N)c34)[nH]c12 [OSI-027] (partner 0.5 µM)
In short: as §1

## UMC-11
[1]; first compound 0.01 µM
  relative viability: 0.317
[1]; first compound 0.03162 µM
  relative viability: 0.29
[1]; first compound 0.1 µM
  relative viability: 0.29
[1]; first compound 0.3162 µM
  relative viability: 0.257
[1]; first compound 1 µM
  relative viability: 0.216
[2]; first compound 0.04 µM
  relative viability: 0.677
[2]; first compound 0.1265 µM
  relative viability: 0.981
[2]; first compound 0.4 µM
  relative viability: 0.672
[2]; first compound 1.265 µM
  relative viability: 0.734
[2]; first compound 4 µM
  relative viability: 0.465
[3]; first compound 0.04 µM
  relative viability: 0.832
[3]; first compound 0.1265 µM
  relative viability: 0.883
[3]; first compound 0.4 µM
  relative viability: 0.877
[3]; first compound 1.265 µM
  relative viability: 0.922
[3]; first compound 4 µM
  relative viability: 0.772
[4]; first compound 0.04 µM
  relative viability: 0.473
[4]; first compound 0.1265 µM
  relative viability: 0.464
[4]; first compound 0.4 µM
  relative viability: 0.502
[4]; first compound 1.265 µM
  relative viability: 0.438
[4]; first compound 4 µM
  relative viability: 0.462
